The subject of data set [1] is HCT-116 cells. Nature of the data set: Mitotic index analysis, pH3 expression in HCT-116 cells. The data set is classed as cell-based. The settings on record: Homo sapiens, 24 h treatment. The method in brief: (§1)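 HCT-116 or HT-29 cells treated 24 h with 9-point 3-fold dilutions from 10 μM, then fixed and immunostained for phospho-histone H3 with DRAQ5 counterstain. Near-infrared fluorescence read at 700/800 nm; pH3 expressed as % of DMSO control and EC50 fitted.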

The test system of data set [2] is HT-29 cells. Description: Detection of cell proliferation activity by CCK8 method (HT-29). The data set is classed as cell-based, human. As to conditions: Homo sapiens, CCK8, 96 h. The essentials: (§2)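 Cells seeded at 1500/well (BT-549, 1640 medium) or 2000/well (HT-29, HCT-116, McCoy's 5A), treated next day with 9-point 1:5 dilutions from 10 μM final, triplicate, for 96 h. CCK8 read at 450 nm after 2 h at 37 °C; inhibition versus DMSO, IC50 by non-linear regression.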
For orientation: Formazan colour is commonly taken as a measure of viable cells.

Data set [3] deals with HCT-116 cells. Description: Detection of cell proliferation activity by CCK8 method (HCT-116). The data set is classed as cell-based. The settings on record: Homo sapiens, CCK8, 96 h. The method in brief:
as §2

A further data set relates to BT-549 cells. Description: Detection of cell proliferation activity by CCK8 method (BT-549). The data set is classed as cell-based. The settings on record: Homo sapiens, CCK8, 96 h. The essentials:
as §2

A short description of data set [4]: Pharmacokinetic test in mice. As to conditions: BALB/c mice; for AUC / Cmax / half-life: mouse, plasma; for half-life: read-out: t½ (converted). The data set is classed as in vivo. The method in brief: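 BALB/c mice (9 per route) received single IV or intragastric doses, with orbital blood taken at 0.25–24 h into K2-EDTA. Plasma levels were measured by LC-MS/MS. Parameters came from non-compartmental analysis using the linear-log trapezoidal method.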

In data set [5] the test system is HT-29 cells. Nature of the data set: Mitotic index analysis, pH3 expression in HT-29 cells. The data set is classed as cell-based, human. The settings on record: Homo sapiens, 24 h treatment. The method in brief:
as §1

For data set [6], the target named is cytochrome oxidase P450 2D6 (Homo sapiens (Human), UniProt P10635). Nature of the data set: Inhibition of cytochrome oxidase P450 2D6. The data set is classed as in vitro ADME. As to conditions: liver microsomes, CYP2D6. (Microsomes from liver hold many membrane-bound enzymes, among them those of drug oxidation.)
A short description of data set [7]: Pharmacokinetic test in rats. As to conditions: SD rats; for AUC / Cmax / half-life: rat, plasma; for half-life: read-out: t½ (converted). The data set is classed as in vivo. Here is the method: In this example, the pharmacokinetic behavior of the compounds after intravenous injection (IV) and intragastric (PO) administration in SD rats was tested.
On the day of administration, rats were weighed for actual body weight and the administration volume was calculated. Each compound was tested in two groups with 3 rats in each group; one group was subjected to administration by single intravenous injection, and the other group was subjected to single intragastric administration. Whole blood samples were collected via the jugular vein at prescribed time points (0.25 h, 0.5 h, 1 h, 2 h, 4 h, 8 h, and 24 h after administration). After blood sample collection, the samples were immediately transferred to labeled commercial sample tubes containing K2-EDTA (0.85-1.15 mg), followed by centrifugation (3200×g, 4° C., 10 min) and plasma collection. The plasma was transferred to a pre-cooled centrifuge tube, frozen in dry ice, and then stored in an ultra-low temperature freezer at −60° C. or lower until the LC-MS/MS analysis.
Plasma concentrations were determined by the LC-MS/MS method. Plasma drug concentration data for the compounds were processed using a non-compartmental model in the WinNonlin Version 6.3 (Pharsight, Mountain View, CA) pharmacokinetic software. The relevant pharmacokinetic parameters were calculated by a linear-log trapezoidal method.

A value given as a limit tells only on which side of the number the result lay.

Chain of cytochrome oxidase P450 2D6 (P10635 whole entry): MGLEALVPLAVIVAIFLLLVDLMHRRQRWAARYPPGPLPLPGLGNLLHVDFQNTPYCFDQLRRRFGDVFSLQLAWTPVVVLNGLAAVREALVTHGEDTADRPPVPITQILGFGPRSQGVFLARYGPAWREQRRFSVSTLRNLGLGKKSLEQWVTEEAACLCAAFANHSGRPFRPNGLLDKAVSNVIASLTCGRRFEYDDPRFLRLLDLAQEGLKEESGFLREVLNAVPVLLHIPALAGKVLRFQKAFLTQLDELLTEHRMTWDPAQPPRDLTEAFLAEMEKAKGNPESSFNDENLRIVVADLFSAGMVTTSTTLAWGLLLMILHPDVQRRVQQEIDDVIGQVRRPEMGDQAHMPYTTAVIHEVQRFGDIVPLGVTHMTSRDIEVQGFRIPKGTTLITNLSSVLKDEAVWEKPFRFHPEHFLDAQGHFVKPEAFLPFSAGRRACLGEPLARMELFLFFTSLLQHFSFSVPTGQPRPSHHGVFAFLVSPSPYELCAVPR

As a reminder, the EC50 is the concentration at which the effect is half-maximal. A higher EC50 goes with weaker potency. Broadly, the IC50 is the midpoint of a concentration-inhibition curve. A word on the AUC: it is the area under the concentration-time curve, a measure of exposure. The Cmax is the highest concentration seen after dosing. In the case of `O=C(Nc1cc2ccccc2c(N2CCC(F)(F)CC2)n1)c1ccc(NS(=O)(=O)CCO)cc1N1CCC2(CC1)CC2` [Compound 6], the EC50 in the data set on HCT-116 cells [1] was > 10000 nM; with HT-29 cells [5], 175 nM. In addition, the IC50 with HT-29 cells [2] was 144 nM; with HCT-116 cells [3] it was > 10000 nM; in the data set with BT-549 cells, 146 nM; in data set [6], > 10000 nM. Also, the values for the F in data set [4] (PO @5mpk) and in data set [7] (PO @5mpk) were 44% and 23%, respectively. The AUC in data set [4] (5 mg/kg, PO @5mpk) worked out at 13.5 µM·h; in data set [7] (5 mg/kg, PO @5mpk), 8.92 µM·h. In addition, the Cmax in data set [4] (5 mg/kg, PO @5mpk) worked out at 1.55 µM; in data set [7] (5 mg/kg, PO @5mpk), 0.509 µM. The half-life is 4.7 h in data set [4] (5 mg/kg, PO @5mpk) and 55.8 h in data set [7] (5 mg/kg, PO @5mpk).
Take `O=C(Nc1cn2ccnc2c(N2CCC(F)(F)CC2)n1)c1ccc(NS(=O)(=O)CCO)cc1N1CCC2(CC1)CC2` [Compound 8]: the results for the EC50 in the data set with HCT-116 cells [1] and with HT-29 cells [5] were > 10000 nM and 6.4 nM, respectively. Moreover, the 50% inhibitory concentration (IC50) in the data set with HT-29 cells [2] is 19 nM; in the data set with HCT-116 cells [3] it was > 10000 nM; in the data set on BT-549 cells, 7.2 nM; in data set [6], > 10000 nM. The F was found to be 97% in data set [4] (PO @5mpk) and 16% in data set [7] (PO @5mpk). In addition, the exposure (AUC) in data set [4] (5 mg/kg, PO @5mpk) was 6.87 µM·h; in data set [7] (5 mg/kg, PO @5mpk), 1.56 µM·h. The Cmax in data set [4] (5 mg/kg, PO @5mpk) came to 1.61 µM; in data set [7] (5 mg/kg, PO @5mpk) it was 0.303 µM. Further, the half-life was 1.2 h in data set [4] (5 mg/kg, PO @5mpk) and 5.9 h in data set [7] (5 mg/kg, PO @5mpk).
Turning to `CS(=O)(=O)Nc1ccc(C(=O)Nc2cn3ccnc3c(N3CCC(F)(F)CC3)n2)c(N2CC3CCC(C3)C2)c1` [Compound 19], the EC50 is > 10000 nM in the data set with HCT-116 cells [1] and 34 nM with HT-29 cells [5]. The 50% inhibitory concentration (IC50) with HT-29 cells [2] was 44 nM; in the data set on HCT-116 cells [3], > 10000 nM; with BT-549 cells, 69.6 nM; in data set [6], > 10000 nM. Also, the F in data set [4] (PO @5mpk) came out at 101%; in data set [4] (PO @30mpk) it was 92%; in data set [7] (PO @5mpk) it was 63%. Besides, the AUC in data set [4] (5 mg/kg, PO @5mpk) is 58.3 µM·h; in data set [4] (30 mg/kg, PO @30mpk), 320 µM·h; in data set [7] (5 mg/kg, PO @5mpk), 20.5 µM·h. In addition, the Cmax amounted to 3.92 µM in data set [4] (5 mg/kg, PO @5mpk); 15.3 µM in data set [4] (30 mg/kg, PO @30mpk); 1.24 µM in data set [7] (5 mg/kg, PO @5mpk). Besides, the half-life in data set [4] (5 mg/kg, PO @5mpk) was 14.9 h; in data set [4] (30 mg/kg, PO @30mpk), 16.5 h; in data set [7] (5 mg/kg, PO @5mpk), 12.2 h.
As to `O=C(Nc1cc2cccnc2c(N2CCC(F)(F)CC2)n1)c1ccc(NS(=O)(=O)CCO)cc1N1CCC2(CC1)CC2` [Compound 21], the results for the EC50 with HCT-116 cells [1] and in the data set with HT-29 cells [5] were > 10000 nM and 6 nM, respectively. Further, the IC50 with HT-29 cells [2] is 5.1 nM; in the data set on HCT-116 cells [3] it was > 10000 nM; with BT-549 cells, 8.2 nM; in data set [6] it was > 10000 nM. In addition, the F stood at 107% in data set [4] (PO @5mpk), 61% in data set [4] (PO @30mpk) and 24.7% in data set [7] (PO @5mpk). Further, the area under the curve (AUC) in data set [4] (5 mg/kg, PO @5mpk) stood at 60.9 µM·h; in data set [4] (30 mg/kg, PO @30mpk) it was 207 µM·h; in data set [7] (5 mg/kg, PO @5mpk), 33.9 µM·h. Moreover, the highest concentration (Cmax) was found to be 4.17 µM in data set [4] (5 mg/kg, PO @5mpk); 15.3 µM in data set [4] (30 mg/kg, PO @30mpk); 2.09 µM in data set [7] (5 mg/kg, PO @5mpk). Moreover, the half-life in data set [4] (5 mg/kg, PO @5mpk) is 4 h; in data set [4] (30 mg/kg, PO @30mpk), 5.4 h; in data set [7] (5 mg/kg, PO @5mpk), 10.6 h.
In the case of `O=C(Nc1cn2c(F)cnc2c(N2CCC(F)(F)CC2)n1)c1ccc(NS(=O)(=O)CCO)cc1N1CCC2(CC1)CC2` [Compound 34], the concentration for a half-maximal effect (EC50) with HCT-116 cells [1] was > 10000 nM; in the data set on HT-29 cells [5] it was 14.5 nM. The IC50 with HT-29 cells [2] was 28.8 nM; with HCT-116 cells [3] it was > 10000 nM; in the data set with BT-549 cells, 33.3 nM; in data set [6], > 10000 nM. The F in data set [4] (PO @5mpk) is on record as 257%; in data set [4] (PO @30mpk), 147%; in data set [7] (PO @30mpk), 25.7%. For the same compound, the AUC in data set [4] (5 mg/kg, PO @5mpk) was determined as 70.1 µM·h; in data set [4] (30 mg/kg, PO @30mpk), 220 µM·h; in data set [7] (30 mg/kg, PO @30mpk), 62.5 µM·h. Besides, the Cmax was 6.39 µM in data set [4] (5 mg/kg, PO @5mpk); 15.2 µM in data set [4] (30 mg/kg, PO @30mpk); 3.43 µM in data set [7] (30 mg/kg, PO @30mpk). The half-life in data set [4] (5 mg/kg, PO @5mpk) was 3.7 h; in data set [4] (30 mg/kg, PO @30mpk), 9.6 h; in data set [7] (30 mg/kg, PO @30mpk), 66.3 h.
Consider `CS(=O)(=O)Nc1ccc(C(=O)Nc2cc3cc[nH]c3c(N3CCC(F)(F)CC3)n2)c(N2CCC3(CC2)CC3)c1` [Compound 47], for which the half-maximal effective concentration (EC50) with HCT-116 cells [1] is > 10000 nM; in the data set with HT-29 cells [5], 6.4 nM. In addition, the IC50 was 10.5 nM in the data set on HT-29 cells [2], > 10000 nM in the data set with HCT-116 cells [3], 18.9 nM in the data set with BT-549 cells and 2240 nM in data set [6].

Values taken from patent US20250382298A1, “NITROGEN-CONTAINING COMPOUND AND USE THEREOF” (SUZHOU GENHOUSE BIO CO., LTD., priority 2022, published 2025).
